Experimental data as given in BindingDB's records for patent US12377080 (Dana-Farber Cancer Institute, 2025).

Tests used:
[1] = target: Epidermal growth factor receptor [L858R] (Homo sapiens, UniProt P00533, L858R); test: HTRF-Based EGFR Biochemical Assays
Description: (§1) EGFR biochemical activity measurements were carried out using the homogeneous time-resolved fluorescence (HTRF) assay (Cisbio). Inhibitors and DMSO normalizations were first dispensed to empty black low-volume 384-well plates (Corning) with D300 digital liquid dispenser (HP). All reactions were carried out at room temperature and solutions were added to plates with a Multidrop Combi Reagent Dispenser (ThermoFisher). The reaction mixture (10 μL final volume) contained 1 μM tyrosine kinase peptide-biotin substrate and mutant EGFR in a reaction buffer (50 mM HEPES pH 7,0, 5 mM MgCl2,1 mM MnCl2, 0.01% BSA, 2 mM TCEP, 0.1 mM NaVO4). Enzyme concentrations were adjusted to accommodate varying kinase activities (L858R 0.1 nM, L858R!T790M 0,02 nM). Enzyme reaction solution (2× concentrations, 5 μL) was added to 384-well plates containing compounds and incubated for 30 mins. Enzyme reactions were initiated with the addition of […] of ATP to a final concentration of 100 μM and reacted for 20 mins. Reactions were quenched with the addition of 10 μL of phospho-tyrosine antibody-Europium(III) cryptate (1-to-180 volume ratio) and Streptavidin-XL665 (46.7 nM) in EDTA-containing detection buffer, then incubated at room temperature for 1 hour, and read with a PHERAstar plate reader (excitation =337 nm, emission =620 nm and 665 nm).

[2] = target: Epidermal growth factor receptor [T790M,L858R] (Homo sapiens, UniProt P00533, L858R/T790M); test: HTRF-Based EGFR Biochemical Assays
Chain of Epidermal growth factor receptor [T790M,L858R] (P00533 25-1210 T790M/L858R limits assumed): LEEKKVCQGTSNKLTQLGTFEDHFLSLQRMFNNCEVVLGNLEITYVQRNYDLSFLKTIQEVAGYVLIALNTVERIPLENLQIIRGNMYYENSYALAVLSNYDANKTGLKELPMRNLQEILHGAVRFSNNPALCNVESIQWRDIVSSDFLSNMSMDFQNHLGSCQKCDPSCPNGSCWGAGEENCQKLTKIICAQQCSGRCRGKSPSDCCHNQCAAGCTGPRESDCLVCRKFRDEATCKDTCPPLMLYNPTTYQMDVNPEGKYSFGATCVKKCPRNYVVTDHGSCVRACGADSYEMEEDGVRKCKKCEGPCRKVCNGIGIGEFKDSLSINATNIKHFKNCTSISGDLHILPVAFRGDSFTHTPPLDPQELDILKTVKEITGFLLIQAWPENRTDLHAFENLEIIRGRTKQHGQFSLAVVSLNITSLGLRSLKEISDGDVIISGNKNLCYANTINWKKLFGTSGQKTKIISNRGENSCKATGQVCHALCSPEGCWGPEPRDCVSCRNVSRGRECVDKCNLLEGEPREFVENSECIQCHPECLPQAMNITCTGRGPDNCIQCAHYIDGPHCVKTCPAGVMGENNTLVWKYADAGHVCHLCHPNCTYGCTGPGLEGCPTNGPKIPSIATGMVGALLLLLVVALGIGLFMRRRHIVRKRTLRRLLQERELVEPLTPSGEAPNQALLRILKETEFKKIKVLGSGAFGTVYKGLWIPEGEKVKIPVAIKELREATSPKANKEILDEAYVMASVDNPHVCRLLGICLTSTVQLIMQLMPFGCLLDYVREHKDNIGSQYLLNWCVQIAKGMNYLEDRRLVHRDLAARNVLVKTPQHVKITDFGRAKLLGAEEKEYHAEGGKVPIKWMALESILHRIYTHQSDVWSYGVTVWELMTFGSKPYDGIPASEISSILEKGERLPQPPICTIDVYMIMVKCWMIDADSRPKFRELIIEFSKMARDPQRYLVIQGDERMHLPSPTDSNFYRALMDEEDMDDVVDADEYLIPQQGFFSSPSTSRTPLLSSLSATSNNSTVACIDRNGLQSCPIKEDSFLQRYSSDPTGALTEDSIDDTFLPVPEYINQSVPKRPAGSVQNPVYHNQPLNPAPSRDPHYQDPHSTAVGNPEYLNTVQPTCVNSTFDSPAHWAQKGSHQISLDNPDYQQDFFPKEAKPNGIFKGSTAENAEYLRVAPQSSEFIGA
Description: as §1

Chain of Epidermal growth factor receptor [L858R] (P00533 25-1210 L858R limits assumed): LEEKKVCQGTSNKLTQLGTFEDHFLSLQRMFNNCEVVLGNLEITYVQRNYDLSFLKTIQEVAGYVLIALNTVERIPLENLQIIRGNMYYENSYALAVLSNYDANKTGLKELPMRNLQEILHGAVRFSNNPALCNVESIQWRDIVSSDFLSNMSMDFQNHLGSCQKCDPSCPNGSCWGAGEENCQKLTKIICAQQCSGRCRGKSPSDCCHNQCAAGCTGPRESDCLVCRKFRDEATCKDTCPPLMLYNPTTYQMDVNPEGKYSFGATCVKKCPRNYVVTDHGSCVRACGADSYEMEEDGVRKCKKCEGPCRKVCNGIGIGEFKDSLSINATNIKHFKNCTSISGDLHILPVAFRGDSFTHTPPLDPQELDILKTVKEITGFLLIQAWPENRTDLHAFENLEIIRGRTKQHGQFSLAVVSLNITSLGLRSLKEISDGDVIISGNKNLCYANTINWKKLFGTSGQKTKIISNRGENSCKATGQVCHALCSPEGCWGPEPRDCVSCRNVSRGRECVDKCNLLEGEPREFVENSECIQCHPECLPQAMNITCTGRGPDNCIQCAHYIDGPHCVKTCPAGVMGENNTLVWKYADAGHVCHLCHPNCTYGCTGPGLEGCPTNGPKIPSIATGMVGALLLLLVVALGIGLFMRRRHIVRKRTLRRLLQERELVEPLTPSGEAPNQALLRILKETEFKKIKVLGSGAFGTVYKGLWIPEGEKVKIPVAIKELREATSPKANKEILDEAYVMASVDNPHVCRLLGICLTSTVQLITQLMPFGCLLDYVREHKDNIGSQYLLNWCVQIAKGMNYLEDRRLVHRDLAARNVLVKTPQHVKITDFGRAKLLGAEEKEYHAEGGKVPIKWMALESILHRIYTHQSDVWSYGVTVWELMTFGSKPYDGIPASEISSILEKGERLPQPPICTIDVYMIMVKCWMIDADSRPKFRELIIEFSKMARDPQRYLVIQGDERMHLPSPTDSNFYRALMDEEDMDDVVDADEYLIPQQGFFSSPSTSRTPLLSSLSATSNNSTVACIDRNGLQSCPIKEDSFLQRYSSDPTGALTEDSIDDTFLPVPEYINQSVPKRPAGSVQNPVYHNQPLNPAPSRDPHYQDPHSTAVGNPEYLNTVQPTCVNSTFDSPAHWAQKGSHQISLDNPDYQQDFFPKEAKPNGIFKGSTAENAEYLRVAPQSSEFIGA

O=C(Nc1nccs1)C(c1cccc(F)c1)N1Cc2cnc(Br)cc2C1=O (stereo not given) [US12377080, Compound 1]
IC50 [1]: > 1000 nM | IC50 [2]: 104 nM

O=C(Nc1nccs1)C(c1cccc(F)c1)N1Cc2ncc(Br)cc2C1=O (stereo not given) [US12377080, Compound 2]
IC50 [1]: 318 nM | IC50 [2]: 15 nM

O=C(Nc1ccccn1)C(c1cccc(F)c1)N1Cc2ncc(Br)cc2C1=O (stereo not given) [US12377080, Compound 3]
IC50 [1]: > 1000 nM | IC50 [2]: 40 nM

O=C(Nc1nccs1)C(c1cccc(F)c1)N1Cc2ccc(Br)nc2C1=O (stereo not given) [US12377080, Compound 4]
IC50 [1]: > 1000 nM | IC50 [2]: 14 nM

O=C(Nc1ccccn1)C(c1cccc(F)c1)N1Cc2ccc(Br)nc2C1=O (stereo not given) [US12377080, Compound 5]
IC50 [1]: > 1000 nM | IC50 [2]: 114 nM
